Assay [1] has as its system Strep. suis (group D) SPS11. Briefly: MIC against Veterinary Bacteria in vitro (agar dilution). In general terms: In agar dilution, organisms are placed on agar that contains the substance at set levels.
Experimental: (§1) The activity of the compounds of the Examples against various veterinarily important bacteria, was assayed in vitro using two-fold serial dilutions in Diagnostic Sensitivity Test Agar inoculated with 10^4 organisms.
Assay [2] has as its system M. suipneumoniae NCTC 10110. Briefly: MIC against Mycoplasma in vitro (agar). In kind it is cell-based. The conditions noted are these: Friis broth solidified with 0.9% agarose, 6 days at 37°C.
The subject of the next assay is E. coli ESS. Briefly: MIC against Human Bacteria in vitro (agar dilution). Format: cell-based. The conditions noted are these: agar with 5% chocolated horse blood, 18 hours at 37°C.
In a further assay the test system is M. suipneumoniae JF 435. Briefly: MIC against Mycoplasma in vitro (agar). In kind it is cell-based. The conditions noted are these: Friis broth solidified with 0.9% agarose, 6 days at 37°C.
A further assay deals with K. aerogenes A. The assay can be described thus: MIC against Human Bacteria in vitro (agar dilution). In kind it is cell-based. The conditions noted are these: agar with 5% chocolated horse blood, 18 hours at 37°C.
The test system of a further assay is Strep. pyogenes 64/848-C. The assay is described as above. In kind it is cell-based. The conditions noted are these: Streptococcus pyogenes, agar with 5% chocolated horse blood, 18 hours at 37°C.
The next assay has as its system M. hyorhinis ATCC 23234. The assay can be described thus: MIC against Mycoplasma in vitro (agar). Format: cell-based. The conditions noted are these: Friis broth solidified with 0.9% agarose, 6 days at 37°C.
Another assay concerns Bord. bronchiseptica B08. The assay can be described thus: MIC against Veterinary Bacteria in vitro (agar dilution).
The next assay has as its system Past. multocida PA1. Described as above.
The subject of another assay is S. typhimurium S18. The assay is described as above.
For assay [3], the system named is Strep. pyogenes R80/421-A. The assay can be described thus: MIC against Human Bacteria in vitro (agar dilution). In kind it is cell-based. The conditions noted are these: Streptococcus pyogenes, agar with 5% chocolated horse blood, 18 hours at 37°C.
The subject of a further assay is E. coli NCTC 10418. Described as above. Format: cell-based. The conditions noted are these: 18 hours at 37°C.
The test system of a further assay is Strep. faecalis I. The assay is described as above. Format: cell-based. The conditions noted are these: agar with 5% chocolated horse blood, 18 hours at 37°C.
For a further assay, the system named is Sarcina lutea 8340. The description is as above. In kind it is cell-based. The conditions noted are these: agar with 5% chocolated horse blood, 18 hours at 37°C.
For assay [4], the system named is Corynebacterium pyogenes CY1. The assay can be described thus: MIC against Veterinary Bacteria in vitro (agar dilution). The conditions noted are these: Diagnostic Sensitivity Test Agar, 18 hours at 37°C.
Experimental: as §1
Assay [5] concerns Haemophilus influenzae Wy21. The assay can be described thus: MIC against Human Bacteria in vitro (agar dilution). In kind it is cell-based. The conditions noted are these: agar with 5% chocolated horse blood, 18 hours at 37°C.
A further assay concerns M. pneumoniae ATCC 15492. Briefly: MIC against Mycoplasma in vitro (agar). In kind it is cell-based. The conditions noted are these: Friis broth solidified with 0.9% agarose, 6 days at 37°C.

≈ marks a conversion by molar mass, not a printed value. Where two headings read alike, the source gives them in different places.

Experimental for Bord. bronchiseptica B08: as §1
Experimental for Past. multocida PA1: as §1
Experimental for S. typhimurium S18: as §1

Take `CC(=CC(=O)OCCCCC=CCCC(=O)O)CC1OCC(CC2OC2C(C)C(C)O)C(O)C1O` (centres unmarked) [Example 1, pseudomonic acid D]: the MIC was 1.25 µg/mL (≈ 2.51 µM) in [1] (Streptococcus suis, 18 h); 5 µg/mL (≈ 10 µM) in assay [2] (Mesomycoplasma hyopneumoniae, NCTC10110, 144 h, read-out: MIC); 1 µg/mL (≈ 2.01 µM) in the assay with E. coli ESS (Escherichia coli, read-out: MIC); 5 µg/mL (≈ 10 µM) in the assay with M. suipneumoniae JF 435 (Mesomycoplasma hyopneumoniae, JF435, 144 h, read-out: MIC); > 25 µg/mL in the assay on K. aerogenes A (Klebsiella aerogenes, read-out: MIC); 0.25 µg/mL (≈ 0.501 µM) with Strep. pyogenes 64/848-C. The MIC in the assay on M. hyorhinis ATCC 23234 (Mesomycoplasma hyorhinis, ATCC23234, 144 h, read-out: MIC) was 1 µg/mL (≈ 2.01 µM); against Bord. bronchiseptica B08 (Bordetella bronchiseptica, B08, 18 h), 10 µg/mL (≈ 20.1 µM); in the assay on Past. multocida PA1 (Pasteurella multocida, PA1, 18 h) it was 0.156 µg/mL (≈ 0.313 µM); against S. typhimurium S18 (Salmonella enterica, TYPHIMURIUM, 18 h), > 20 µg/mL; in assay [3] it was 0.5 µg/mL (≈ 1 µM); with E. coli NCTC 10418 (Escherichia coli, NCTC10418, agar with 5% chocolated horse blood, read-out: MIC) it was > 25 µg/mL. Also, the MIC in the assay on Strep. faecalis I (Enterococcus faecalis, read-out: MIC) was > 25 µg/mL; in the assay on Sarcina lutea 8340 (Micrococcus luteus, read-out: MIC), > 25 µg/mL.
As for Methyl pseudomonate D [Example 2], the MIC is 0.625 µg/mL in assay [1] (Strep. suis (group D) SPS11, Diagnostic Sensitivity Test Agar, 18 hours at 37°C); 5.0 µg/mL in assay [2]; 1.0 µg/mL against E. coli ESS; 80 µg/mL in assay [4]; 5.0 µg/mL against M. suipneumoniae JF 435; >100 µg/mL with K. aerogenes A. For the same compound, the MIC against M. hyorhinis ATCC 23234 is 1.0 µg/mL; against Bord. bronchiseptica B08 (Bord. bronchiseptica B08, Diagnostic Sensitivity Test Agar, 18 hours at 37°C) it was 40 µg/mL; against Past. multocida PA1 (Past. multocida PA1, Diagnostic Sensitivity Test Agar, 18 hours at 37°C), 10 µg/mL; against S. typhimurium S18 (S. typhimurium S18, Diagnostic Sensitivity Test Agar, 18 hours at 37°C) it was 80 µg/mL; in assay [5] it was 0.1 µg/mL; with M. pneumoniae ATCC 15492, >10 µg/mL. The MIC in the assay with E. coli NCTC 10418 (agar with 5% chocolated horse blood), against Strep. faecalis I and in the assay on Sarcina lutea 8340 was >100 µg/mL in each case.

These data come from patent EP0068680A1, “Antibiotics” (BEECHAM GROUP PLC, priority 1981, dated 1983).
